The values below come from patent publication US8088791B2, “Antibacterial agents” (Biots Scientific Management Pty Ltd, priority 2006, dated 2012).

≈ marks a conversion by molar mass, not a printed value.

One assay deals with Bacillus subtilis 168CA. Briefly: Minimum Inhibitory Concentration (MIC) testing, broth microdilution, Bacillus subtilis. In kind it is cell-based. The settings on record: Bacillus subtilis 168CA; read-out: Bacillus subtilis MICs Activity. A digest of the protocol:
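Broth microdilution followed NCCLS M7-A5, in rich broth such as Mueller Hinton, inoculum at OD 0.09 diluted 1:100, compounds in 1.6% DMSO before inoculum. After 16–20 h at 37 °C, MIC was the lowest concentration without visible growth. Score A: ≦8 μg/ml, B: 16–64 μg/ml, C: >64 μg/ml.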

In assay [1] the test system is Staphylococcus aureus ATCC29213. Briefly: Minimum Inhibitory Concentration (MIC) testing, broth microdilution, Staphylococcus aureus. The settings on record: Staphylococcus aureus ATCC29213; read-out: Staphylococcus aureus MICs Activity. The assay is classed as cell-based. The method in brief:
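Broth microdilution per NCCLS M7-A5 in Mueller Hinton broth, with compound in 1.6% DMSO and inoculum at OD 0.09 diluted 1:100. Plates incubated 16–20 h at 37°C. MIC is the lowest concentration with no visible growth; scored A ≤8, B 16–64, C >64 μg/ml.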
In general terms: Dilution methods test growth across graded concentrations, often in twofold steps.

As to `Cc1oc(-c2ccc(Cl)cc2)nc1COc1ccc(F)c(C(N)=O)c1F` [Example 297, 3-[2-(4-Chloro-phenyl)-5-methyl-oxazol-4-ylmethoxy]-2,6-difluoro-benzamide], the MIC (in the assay with Bacillus subtilis 168CA; in assay [1]) was below 8 µg/mL in each case.

`Cc1cccc(COc2ccc(F)c(C(N)=O)c2F)n1` [Example 197, 2,6-Difluoro-3-[(6-methyl-2-pyridinyl)methoxy]benzenecarboxamide]: the MIC (with Bacillus subtilis 168CA; in assay [1]) was 16 to 64 µg/mL (≈ 57.5 to 230 µM) in each case.

Take `C#CCCCCCCCCCOc1ccc(F)c(C(N)=O)c1` [Example 75, 2-Fluoro-5-(10-undecynyloxy)benzenecarboxamide]: the MIC (with Bacillus subtilis 168CA; in assay [1]) was below 8 µg/mL throughout.

For the compound `CCCCCC/C=C/COc1ccc(F)c(C(N)=O)c1` [Example 74, 2-Fluoro-5-[(E)-2-nonenyloxy]benzenecarboxamide], the MIC (in the assay on Bacillus subtilis 168CA; in assay [1]) was below 8 µg/mL in each case.

For `Cc1ccc2sc(COc3ccc(F)c(C(N)=O)c3F)nc2c1` [Example 148, 2,6-Difluoro-3-(5-methyl-benzothiazol-2-ylmethoxy)-benzamide], the MIC (in the assay with Bacillus subtilis 168CA; in assay [1]) was below 8 µg/mL throughout.

`CC(Oc1ccc(F)c(C(N)=O)c1F)c1nc(-c2ccc(Cl)cc2)no1` (stereo not drawn) [Example 324, 3-{1-[3-(4-Chloro-phenyl)-[1,2,4]oxadiazol-5-yl]-ethoxy}-2,6-difluoro-benzamide]: the MIC (with Bacillus subtilis 168CA; in assay [1]) was below 8 µg/mL throughout.

Regarding `NC(=O)c1c(F)ccc(OCc2nc(-c3cccc(O)c3)no2)c1F` [Example 257, 2,6-Difluoro-3-[3-(3-hydroxyphenyl)-1,2,4-oxadiazol-5-yl]methoxybenzenecarboxamide], the MIC (in the assay on Bacillus subtilis 168CA; in assay [1]) was below 8 µg/mL in each case.

Take `NC(=O)c1c(F)ccc(OCC2COc3ccccc3O2)c1F` (stereo not drawn) [Example 204, 3-(2,3-Dihydro-1,4-benzodioxin-2-ylmethoxy)-2,6-difluorobenzenecarboxamide]: the MIC (with Bacillus subtilis 168CA; in assay [1]) was 16 to 64 µg/mL (≈ 49.8 to 199 µM) throughout.

With `CCCCCCOc1cc(F)cc(C(N)=O)c1` [Example 167, 3-Fluoro-5-hexyloxy benzamide], the MIC (in the assay on Bacillus subtilis 168CA; in assay [1]) was 16 to 64 µg/mL (≈ 66.9 to 267 µM) throughout.

Consider `NC(=O)c1c(F)ccc(OCc2ccco2)c1F` [Example 183, 2,6-Difluoro-3-(2-furylmethoxy)benzenecarboxamide], for which the MIC (in the assay with Bacillus subtilis 168CA; in assay [1]) was 16 to 64 µg/mL (≈ 63.2 to 253 µM) throughout.

`CCOc1cccc(COc2ccc(F)c(C(N)=O)c2F)c1` [Example 196, 3-[(3-Ethoxybenzyl)oxy]-2,6-difluorobenzenecarboxamide]: the MIC with Bacillus subtilis 168CA is below 8 µg/mL; in assay [1] it was 16 to 64 µg/mL (≈ 52.1 to 208 µM).

With `Cc1ccc(-c2nc(CCOc3ccc(F)c(C(N)=O)c3F)c(C)o2)cc1` [Example 333, 2,6-Difluoro-3-[2-(5-methyl-2-p-tolyl-oxazol-4-yl)-ethoxy]-benzamide], the MIC (with Bacillus subtilis 168CA; in assay [1]) was below 8 µg/mL throughout.

Take `CC(C)(C)c1nc(CCCOc2cccc(C(N)=O)c2)c(C(F)(F)F)o1` [Example 57, 3-{3-[2-(tert-Butyl)-5-(trifluoromethyl)-1,3-oxazol-4-yl]propoxy}benzenecarboxamide]: the MIC in the assay with Bacillus subtilis 168CA is below 8 µg/mL; in assay [1], 16 to 64 µg/mL (≈ 43.2 to 173 µM).

For `CCCCCCCOc1cccc(C(N)=O)c1` [Example 24, 3-(Heptyloxy)benzenecarboxamide], the MIC (in the assay on Bacillus subtilis 168CA; in assay [1]) was below 8 µg/mL each time.

Regarding `Cc1cccc(COc2ccc(F)c(C(N)=O)c2F)c1F` [Example 128, 2,6-Difluoro-3-(2-fluoro-3-methyl-benzyloxy)-benzamide], the MIC is below 8 µg/mL in the assay on Bacillus subtilis 168CA and 16 to 64 µg/mL (≈ 54.2 to 217 µM) in assay [1].

Take `Cc1ccc2nc(COc3ccc(F)c(C(N)=O)c3F)oc2c1` [Example 211, 2,6-Difluoro-3-[(6-methyl-1,3-benzoxazol-2-yl)methoxy]benzenecarboxamide]: the MIC is below 8 µg/mL in the assay on Bacillus subtilis 168CA and 16 to 64 µg/mL (≈ 50.3 to 201 µM) in assay [1].

Regarding `NC(=O)c1c(Cl)ccc(OCc2nc(-c3ccc(Cl)cc3)cs2)c1F` [Example 273, 6-Chloro-3-[4-(4-chloro-phenyl)-thiazol-2-ylmethoxy]-2-fluoro-benzamide], the MIC (in the assay with Bacillus subtilis 168CA; in assay [1]) was below 8 µg/mL in each case.

On to `NC(=O)c1c(F)ccc(OCc2cccc(F)c2)c1F` [Example 101, 2,6-Difluoro-3-(3-fluoro-benzyloxy)-benzamide], for which the MIC (in the assay with Bacillus subtilis 168CA; in assay [1]) was 16 to 64 µg/mL (≈ 56.9 to 228 µM) throughout.

For the compound `COc1ccc(-c2nc(COc3ccc(F)c(C(N)=O)c3F)sc2-c2ccc(O)cc2)cc1` [Example 279, 2,6-Difluoro-3-[5-(4-hydroxy-phenyl)-4-(4-methoxy-phenyl)-thiazol-2-ylmethoxy]-benzamide], the MIC (in the assay with Bacillus subtilis 168CA; in assay [1]) was below 8 µg/mL throughout.

Take `NC(=O)c1c(F)ccc(OCc2nc(-c3ccc(O)cc3)cs2)c1F` [Example 290, 2,6-Difluoro-3-[4-(4-hydroxy-phenyl)-thiazol-2-ylmethoxy]-benzamide]: the MIC (in the assay on Bacillus subtilis 168CA; in assay [1]) was below 8 µg/mL each time.

For the compound `CCCCCOc1cccc(C(N)=O)c1` [Example 5, 3-(Pentyloxy)benzenecarboxamide], the MIC (with Bacillus subtilis 168CA; in assay [1]) was 16 to 64 µg/mL (≈ 77.2 to 309 µM) in each case.

For `NC(=O)c1c(F)ccc(OCc2cc3ccccc3s2)c1F` [Example 206, 3-(1-Benzothiophen-2-ylmethoxy)-2,6-difluorobenzenecarboxamide], the MIC in the assay with Bacillus subtilis 168CA is below 8 µg/mL; in assay [1] it was above 64 µg/mL.

Take `NC(=O)c1c(F)ccc(OCCCCO)c1F` [Example 178, 2,6-Difluoro-3-(4-hydroxybutoxy)benzenecarboxamide]: the MIC (in the assay on Bacillus subtilis 168CA; in assay [1]) was 16 to 64 µg/mL (≈ 65.2 to 261 µM) throughout.

As to `CCCC/C=C/CCOc1cccc(C(N)=O)c1` [Example 40, 3-[(E)-3-Octenyloxy]benzenecarboxamide], the MIC (in the assay on Bacillus subtilis 168CA; in assay [1]) was below 8 µg/mL throughout.

Consider `NC(=O)c1c(F)ccc(OCc2csc3ccccc23)c1F` [Example 202, 3-(1-Benzothiophen-3-ylmethoxy)-2,6-difluorobenzenecarboxamide], for which the MIC in the assay on Bacillus subtilis 168CA is below 8 µg/mL; in assay [1], 16 to 64 µg/mL (≈ 50.1 to 200 µM).

`NC(=O)c1c(F)ccc(OCc2ccsc2)c1F` [Example 188, 2,6-Difluoro-3-(3-thienylmethoxy)benzenecarboxamide]: the MIC (in the assay with Bacillus subtilis 168CA; in assay [1]) was 16 to 64 µg/mL (≈ 59.4 to 238 µM) throughout.

`COc1ccc(-c2nc(COc3ccc(F)c(C(N)=O)c3F)sc2-c2cccnc2)cc1` [Example 121, 2,6-Difluoro-3-[4-(4-methoxy-phenyl)-5-pyridin-3-yl-thiazol-2-ylmethoxy]-benzamide]: the MIC (with Bacillus subtilis 168CA; in assay [1]) was below 8 µg/mL in each case.

On to `N#Cc1ccc(-c2csc(COc3ccc(F)c(C(N)=O)c3F)n2)cc1` [Example 276, 3-[4-(4-Cyano-phenyl)-thiazol-2-ylmethoxy]-2,6-difluoro-benzamide], for which the MIC (in the assay on Bacillus subtilis 168CA; in assay [1]) was below 8 µg/mL in each case.

Take `COc1ccc2nc(COc3ccc(F)c(C(N)=O)c3F)ccc2c1` [Example 109, 3-(6-Methoxyquinolin-2-ylmethoxy)-2,6-difluoro-benzamide]: the MIC with Bacillus subtilis 168CA was below 8 µg/mL; in assay [1], 16 to 64 µg/mL (≈ 46.5 to 186 µM).

Consider `NC(=O)c1c(F)ccc(OCc2nc(-c3ccccc3)co2)c1F` [Example 310, 2,6-Difluoro-3-(4-phenyl-oxazol-2-ylmethoxy)-benzamide], for which the results for the MIC (in the assay on Bacillus subtilis 168CA; in assay [1]) were below 8 µg/mL and 16 to 64 µg/mL (≈ 48.4 to 194 µM), respectively.
